Where two headings read alike, the source gives them in different places.
Columns and labels:
mAb12.8 [1] = format: binding; details: for binding to mAb12.8: ELISA of Example 2 part A / Example 3, FIG. 4, GM3 immobilized from methanol; for A450 (absorbance at 450 nm): 10 μg/mL mAb12.8
Description: Microtiter plates are prepared with serial dilutions of 3′SL-HSA (prepared as described in Example 1) in Tris-Ca^++ buffer (0.05M Tris HCl, pH 7.5, 0.15 M NaCl, 2 mM CaCl2), starting with 500 ng/well. The plates are incubated at 37° C. for 1 hour to immobilize the carbohydrate on the plastic well surface.
100 μl of 2% BSA in Tans-Cat^++ buffer is added to each well, and the plates are incubated at room temperature for 1 hour, and washed 3 times with Tris-Ca^++ buffer. 100 μl of 10 μg/mL mAb12.8 in 1% BSA Tris-Ca^++ buffer is then added to each well, and the plates are incubated at room temperature for 2 hours. Again, the plates are washed 3 times with Tris-Ca^++ buffer.
100 μl of 1 μg/mL peroxidase-labeled goat anti-mouse IgM (KPL, Inc., Gaithersburg, Md.) in 1% BSA Tris-Ca^++ buffer is added to each well, and the plates are incubated at room temperature for 1 hour, and washed 3 times with Tris-Ca^++ buffer. 100 μl of TMB (tetramethylbenzidine) substrate solution (KPL, Inc., Gaithersburg, Md.) is then added to each well, and the reaction is allowed to proceed for 2 minutes. The reaction is stopped, and detection enhanced, by the addition of 100 μl of 1M formic acid/well. The absorbance at 450 nm is then determined in a Titertek Multiskan MCC/340 plate reader (Flow Laboratories. Inc., McLean, Va.).
To illustrate the specificity of the interaction between 3′SL-HSA and mAb 12.8, and to further characterize the epitope of the antibody, the assay described in Example 2, part A, is performed using the control carbohydrates shown below:
The assays of each of the above HSA conjugates are performed as described for 3′SL-HSA. For GM3, the assay is as described above except that dilutions of GM3 are prepared in methanol, and immobilization on the plastic well surface is achieved by allowing the methanol to completely evaporate under an exhaust hood. After immobilization, 100 μl of 1% BSA in Tris-Ca^++ buffer is added to the wells containing GM3.

[2] = tested on: KG1A cells bound to mAb12.8; assay: Parallel plate flow assay, inhibition of CD34+ (KG1A) cell binding to immobilized mAb12.8; format: cell-based; details: 200 ng carbohydrate per dish, 250 ng mAb12.8, wall shear stress 0.48 dynes/cm^2 for 2 minutes; FIG. 5
Description: This Example illustrates the use of a representative carbohydrate according to this invention to release KG1A cells (ATCC No. CCL246.1, Rockville, Md.) bound to mAb12.8.
Monoclonal antibody 12.8 is immobilized on 35 mm tissue culture dishes by adsorption, as shown below:
Each substrate is coated on the dish and incubated at 37° C. for 1 hour prior to adding the next substrate or running the flow assay. The flow assay utilizes a parallel plate flow chamber mounted on an inverted-stage microscope to visualize the adhesive interactions between cells and substrates. Each dish is attached to the flow chamber and mounted on the microscope stage.
To prevent binding of the cells to mAb12.8 by way of Fc receptors on the cell surface, human IgG ([…]) is added to the KG1A cells 10 minutes prior to the flow assay. In addition, 200 ng of 3′SL-HSA is added to dish 2, and 200 ng of 6′SL-HSA is added to dish 3, and flow is initiated such that the cells flow over the surface of the dish at a wall shear stress of 0.48 dynes/cm^2 for 2 minutes, prior to collecting images at 7 different locations on the dish. The images are then quantified, using video microscopy coupled to digital image processing, to determine the number of adherent cells in each image, and the number of cells in the 7 images are averaged.

mAb12.8 [3] = assay: ELISA, binding of defucosylated SLe^x epitope to mAb12.8 with and without α1,3,4 fucosidase treatment; design: species or system mouse; details: 250 ng per well, FIG. 3; for binding to mAb12.8 after fucosidase treatment: 200 units per well α1,3,4 fucosidase, 37° C. overnight
Description: In a related experiment, the binding of a partially defucosylated SLe^X epitope (coupled to HSA) is evaluated using a similar ELISA. […] 100 μl of 2% BSA in Tris-Ca^++ buffer is added to each well to block further non-specific binding, and the plates are incubated at room temperature for 1 hour, followed by 2 washes with Tris-Ca^++ buffer. 200 units per well of α1,3,4 fucosidase (New England Biolabs, Beverly, Mass.) in citrate buffer (pH 4.0) is then added to half of the wells. The plates are covered and incubated at 37° C. overnight.
The plates are then washed three times with Tris-Ca^++ buffer and mAb12.8 (100 μl of 10 μg/mL mAb12.8 in Tris-Ca^++ buffer) is then added to each well except for 1 negative control for each condition. The plates are incubated at room temperature for 2 hours.
The plates are then washed 3 times with Tris-Ca^++ buffer, and 100 μl of 1 μg/mL peroxidase-labeled goat anti-mouse IgM (KPL, Inc., Gaithersburg, Md.) in 1% BSA Tris-Ca^++ buffer is added to each well. The plates are incubated at room temperature for 1 hour. The wells are then washed 5 times with Tris-Ca^++ buffer, and 100 μl of TMB substrate solution (KPL, Gaithersburg, Md.) is added to each well, and the reaction is allowed to proceed for 2 minutes. The reaction is stopped, and detection enhanced, by the addition of 100 μl of IM formic acid/well. The absorbance at 450 nm is then determined in a Titertek Multiskan MCC/340 plate reader (Flow Laboratories, Inc., McLean, Va.).

mAb12.8 [4] = assay: ELISA, effect of varying linker arm and carrier group on carbohydrate binding to mAb12.8; design: species or system mouse; details: 100 μl of carbohydrate at 0.5 μg/ml immobilized; 10 μg/ml mAb12.8; FIG. 2
Description: The effect of altering the chemical linker arm and carrier group on the 3′SL binding to mAb12.8 is evaluated using the following carbohydrates, prepared as described in example 1: 3′SL-APD-dendrimer. 3′SL-APD-BSA. 3′SL-APEA-BSA, 3′SL-APD-HSA and 6′SL-APD-HSA.
100 μl of each of the above carbohydrates is added to duplicate wells in a 96-well microtiter plate at 0.5 μg/ml. The plates are incubated overnight at 4° C. to immobilize the carbohydrates on the plastic well surface. The wells are then washed three times and filled with Tris-Cat^++ buffer (0.05 M Tris-HCl, pH 7.5, 0.15 M NaCl, 2 mM CaCl2) containing 1% BSA. The plates are then incubated for 1 hour at room temperature to block nonspecific binding.
The plates are washed three times with Tris-Ca^++ buffer and mAb 12.8 (100 μl of 10 μg/ml in Tris-Ca^++ buffer) is added to all wells except one negative control for each condition. The plates are incubated for an additional two hours at room temperature. […]
Wells are washed five times with Tris-Ca^++ buffer and 100 μl of tetramethylbenzidine solution (TMB substrate solution. KPL, Inc., Gaithersburg, Md.) is added. […] The microtiter plate is read in a Titertek Multiskan MCC/340 plate reader (Flow Laboratories, Inc., McLean, Va.) set at a wavelength of 450 nm.

Substance	binding to mAb12.8 (mAb12.8 [1])	binding to mAb12.8 after fucosidase treatment (mAb12.8 [3])	also measured
Neu5Acα2-3Galβ1-3GlcNAcβ1-3Galβ1-4(Glc)-APD-HSA [LSTa-HSA, reference compound]	does not bind		
Neu5Acα2-3Galβ1-4(Glc)-APD-HSA [3′SL-HSA]	binds to mAb12.8	no detectable effect on binding	A450 (absorbance at 450 nm) (mAb12.8 [1]; about 100 ng per well immobilized carbohydrate): greater than 1; A450 (absorbance at 450 nm) (mAb12.8 [1]; about 200 ng per well immobilized carbohydrate): ~3; A450 (absorbance at 450 nm) (mAb12.8 [1]; amounts less than about 70 ng/well immobilized carbohydrate): approximately 0.5; inhibition of binding of KG1A cells to mAb12.8 [2]: inhibits the binding of KG1A cells to mAb12.8; binding to mAb12.8 (mAb12.8 [3]; absence of fucosidase treatment): bind to mAb12.8
Neu5Acα2-3Galβ1-4GlcNAcβ1-3Galβ1-4(Glc)-HSA		bind to mAb12.8	
Neu5Acα2-6Galβ1-4(Glc)-APD-HSA [6′SL-HSA, reference compound]	does not bind		binding to mAb12.8 (mAb12.8 [4]): does not bind
Neu5Acα2-3Galβ1-4Glcβ1-1Ceramide [GM3, reference compound]	does not bind		

— patent publication US6362010B1, “Methods and compositions for release of CD3430 cells from affinity matrices” (priority 1995, dated 2002)
